Experimental data from patent US10611760B2, “Therapeutic compounds as inhibitors of the orexin-1 receptor” (C4X Discovery Limited, priority 2014, dated 2020).

Tests used:
hOX2R = target: T1, hOX2R (Homo sapiens, UniProt O43614); assay: Intracellular calcium measurements using division-arrested cells, OX2; assay type: cell-based; settings: agonist orexin B at 2×EC50, * = single experiment, otherwise average of at least two, read-out: pIC50 OX2 (converted)
T1 sequence (O43614 1-444): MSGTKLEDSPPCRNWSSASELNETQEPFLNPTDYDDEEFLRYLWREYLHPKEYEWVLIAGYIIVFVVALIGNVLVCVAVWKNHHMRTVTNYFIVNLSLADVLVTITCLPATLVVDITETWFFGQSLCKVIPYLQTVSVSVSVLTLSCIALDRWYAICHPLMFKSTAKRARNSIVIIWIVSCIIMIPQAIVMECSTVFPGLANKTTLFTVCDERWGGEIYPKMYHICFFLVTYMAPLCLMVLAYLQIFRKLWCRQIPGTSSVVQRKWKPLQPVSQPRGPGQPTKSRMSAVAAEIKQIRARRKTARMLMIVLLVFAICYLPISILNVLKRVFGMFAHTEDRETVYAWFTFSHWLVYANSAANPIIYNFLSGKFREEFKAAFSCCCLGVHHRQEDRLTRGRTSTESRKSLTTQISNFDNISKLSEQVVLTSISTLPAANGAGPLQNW
Description: (§1) Intracellular Calcium Measurements Using Division-arrested Cells (Table 1):
(§2) Test compounds are prepared as 10 mM stock solutions in DMSO, then serially diluted in half log concentrations with DMSO followed by dilution with assay buffer (HBSS (Sigma-Aldrich, H8264) containing 20 mM HEPES (Sigma-Aldrich, H4034), 0.1% (w/v) bovine serum albumin and adjusted to pH 7.4) to a top final assay concentration of 10 μM.
(§3) Human OX1 (CT-A474) and human OX2 (CT-A475) receptor-expressing division-arrested cells are plated into 384 well black, clear bottom, cell-bind plates at a seeding density of 10,000 cells/50 μL growth media. The seeded plates are incubated at 37° C. in air supplemented with 5% CO2 for 16 hrs.
(§4) The media is removed and replaced with 30 μL/well of cell loading buffer (a vial of Calcium 5 is solubilized in 22 mL of assay buffer to which a freshly prepared 250 mM solution of probenecid in 1:1 1M NaOH to assay buffer (200 μL) is added) and the cells incubated for 1 hr at 37° C. The serially diluted test compounds (10 μL/well) are added to the plate, which is then incubated for 10 mins and placed in a FlexStation III reader.

hOX1R = target: T2, hOX1R (Homo sapiens, UniProt O43613); assay: Intracellular calcium measurements using division-arrested cells, OX1; assay type: cell-based; settings: agonist orexin A at 2×EC50, * = single experiment, otherwise average of at least two, read-out: pIC50 OX1 (converted)
T2 sequence (O43613 1-425): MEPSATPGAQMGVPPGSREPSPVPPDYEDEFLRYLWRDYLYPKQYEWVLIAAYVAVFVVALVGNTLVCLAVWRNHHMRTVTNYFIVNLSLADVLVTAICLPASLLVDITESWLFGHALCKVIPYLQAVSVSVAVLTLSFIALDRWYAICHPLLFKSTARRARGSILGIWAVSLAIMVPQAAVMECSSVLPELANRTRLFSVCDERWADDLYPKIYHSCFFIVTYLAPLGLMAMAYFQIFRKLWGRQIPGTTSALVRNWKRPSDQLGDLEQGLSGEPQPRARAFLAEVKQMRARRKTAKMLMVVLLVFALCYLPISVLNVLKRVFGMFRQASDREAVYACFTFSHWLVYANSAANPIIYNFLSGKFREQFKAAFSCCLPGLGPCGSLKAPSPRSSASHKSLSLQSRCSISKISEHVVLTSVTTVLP
Description: as §1, §2, §3, §4

IC50 (hOX2R) [µM] | IC50 (hOX1R) [µM] | SMILES
0.501 | 0.158 | CC(C)[C@@H](CNc1ccc(Cl)cn1)N(C)C(=O)c1c(-c2ccccc2)[nH]c2ccccc12 [Example 27, (S)—N-(1-((5-chloropyridin-2-yl)amino)-3-methylbutan-2-yl)-N-methyl-2-phenyl-1H-indole-3-carboxamide]
> 10 | 0.2 | CC(C)[C@@H](CNc1ccc(Cl)cn1)N(C)C(=O)c1ccccc1-n1nccn1 [Example 28, (S)—N-(1-((5-chloropyridin-2-yl)amino)-3-methylbutan-2-yl)-N-methyl-2-(2H-1,2,3-triazol-2-yl)benzamide]
> 5.01 | 1.58 | Cc1cc(C)nc(OC[C@H](C(C)C)N(C)C(=O)c2ccccc2-c2ccccc2)n1 [Example 30, (S)—N-(1-((4,6-dimethylpyrimidin-2-yl)oxy)-3-methylbutan-2-yl)-N-methyl-[1,1′-biphenyl]-2-carboxamide]
> 3.16 | 0.2 | CC(C)[C@@H](COc1ccc(Cl)cn1)N(C)C(=O)c1ccccc1-c1ccccc1 [Example 34, (S)—N-(1-((5-chloropyridin-2-yl)oxy)-3-methylbutan-2-yl)-N-methyl-[1,1′-biphenyl]-2-carboxamide]
2 | 0.0794 | CC(C)[C@@H](CNc1nccc(-c2ccccc2)n1)N(C)C(=O)c1ccccc1-c1ccccc1 [Example 35, (S)—N-methyl-N-(3-methyl-1-((4-phenylpyrimidin-2-yl)amino)butan-2-yl)-[1,1′-biphenyl]-2-carboxamide]
> 3.98 | 0.0794 | CC(C)[C@@H](CNc1nc2ccccc2n1C)N(C)C(=O)c1ccccc1-c1ccccc1 [Example 38, (S)—N-methyl-N-(3-methyl-1-((1-methyl-1H-benzo[d]imidazol-2-yl)amino)butan-2-yl)-[1,1′-biphenyl]-2-carboxamide]
2.51 | 0.0158 | CC[C@@H](CNc1cnc(C(F)(F)F)cn1)N(C)C(=O)c1cc(Cl)ccc1-n1nccn1 [Example 40, (S)-5-chloro-N-methyl-2-(2H-1,2,3-triazol-2-yl)-N-(1-((5-(trifluoromethyl)pyrazin-2-yl)amino)butan-2-yl)benzamide]
1 | – | CC[C@@H](CNc1ccc(C(F)(F)F)cn1)N(C)C(=O)c1cc(Cl)ccc1-n1nccn1 [Example 42, (S)-5-chloro-N-methyl-2-(2H-1,2,3-triazol-2-yl)-N-(1-((5-(trifluoromethyl)pyridin-2-yl)amino)butan-2-yl)benzamide]
2.51 | 0.0126 | CC[C@@H](CNc1ccc(C(F)(F)F)cn1)N(C)C(=O)c1nc(C)ccc1-n1nccn1 [Example 48, (S)—N,6-dimethyl-3-(2H-1,2,3-triazol-2-yl)-N-(1-((5-(trifluoromethyl)pyridin-2-yl)amino)butan-2-yl)picolinamide]
> 10 | 0.631 | Cc1cc(C(=O)N(C)[C@H](CNc2ccc(Cl)cn2)C(C)C)c2ccccc2n1 [Example 51, (S)—N-(1-((5-chloropyridin-2-yl)amino)-3-methylbutan-2-yl)-N,2-dimethylquinoline-4-carboxamide]
> 7.94 | 1 | CC(C)[C@@H](CNc1ccc(Cl)cn1)N(C)C(=O)c1ccccc1OC(F)(F)F [Example 52, (S)—N-(1-((5-chloropyridin-2-yl)amino)-3-methylbutan-2-yl)-N-methyl-2-(trifluoromethoxy)benzamide]

Second part, the compound before the results:

SMILES | IC50 (hOX2R) [µM] | IC50 (hOX1R) [µM]
CC[C@@H](CNc1ccc(Cl)cn1)NC(=O)c1cc(C)ccc1-n1nccn1 [Example 2, (S)—N-(1-((5-chloropyridin-2-yl)amino)butan-2-yl)-5-methyl-2-(2H-1,2,3-triazol-2-yl)benzamide] | 2 | 0.0398
CC[C@@H](CNc1ccc(Cl)cn1)N(C)C(=O)c1ccccc1-c1ccccc1 [Example 3, (S)—N-(1-((5-chloropyridin-2-yl)amino)butan-2-yl)-N-methyl-[1,1′-biphenyl]-2-carboxamide] | 1 | 0.02
CC(C)[C@@H](CNc1ccc(Cl)cn1)NC(=O)c1ccccc1-c1ccccc1 [Example 4, (S)—N-(1-((5-chloropyridin-2-yl)amino)-3-methylbutan-2-yl)-[1,1′-biphenyl]-2-carboxamide] | > 10 | 0.158
CC(C)C[C@@H](CNc1ccc(Cl)cn1)NC(=O)c1ccccc1-c1ccccc1 [Example 5, (S)—N-(1-((5-chloropyridin-2-yl)amino)-4-methylpentan-2-yl)-[1,1′-biphenyl]-2-carboxamide] | > 10 | 1
CC(C)C[C@@H](CNc1ccc(Cl)cn1)N(C)C(=O)c1ccccc1-c1ccccc1 [Example 8, (S)—N-(1-((5-chloropyridin-2-yl)amino)-4-methylpentan-2-yl)-N-methyl-[1,1′-biphenyl]-2-carboxamide] | > 10 | 0.794
Cc1nc(-c2ccccc2)c(C(=O)N(C)[C@H](CNc2ccc(Cl)cn2)C(C)C)s1 [Example 11, (S)—N-(1-((5-chloropyridin-2-yl)amino)-3-methylbutan-2-yl)-N,2-dimethyl-4-phenylthiazole-5-carboxamide] | > 7.94 | 0.0794
CN(C(=O)c1ccccc1-c1ccccc1)[C@H](CNc1ccc(Cl)cn1)C(C)(C)C [Example 12, (S)—N-(1-((5-chloropyridin-2-yl)amino)-3,3-dimethylbutan-2-yl)-N-methyl-[1,1′-biphenyl]-2-carboxamide] | > 10 | 1
CN(C(=O)c1ccccc1-c1ccccc1)[C@H](CNc1ccc(Cl)cn1)C1CC1 [Example 13, (S)—N-(2-((5-chloropyridin-2-yl)amino)-1-cyclopropylethyl)-N-methyl-[1,1′-biphenyl]-2-carboxamide] | 2.51 | 0.0398
CC(C)[C@@H](CNc1ccc(Cl)cn1)N(C(=O)c1ccccc1-c1ccccc1)C1CC1 [Example 15, (S)—N-(1-((5-chloropyridin-2-yl)amino)-3-methylbutan-2-yl)-N-cyclopropyl-[1,1′-biphenyl]-2-carboxamide] | > 10 | –
CC[C@@H](CNc1ccc(Cl)cn1)N(C)C(=O)c1cc(Cl)ccc1-n1nccn1 [Example 16, (S)-5-chloro-N-(1-((5-chloropyridin-2-yl)amino)butan-2-yl)-N-methyl-2-(2H-1,2,3-triazol-2-yl)benzamide] | 1.26 | 0.0126
CC[C@@H](CNc1ccc(Cl)cn1)N(C)C(=O)c1cc(F)ccc1-n1nccn1 [Example 18, (S)—N-(1-((5-chloropyridin-2-yl)amino)butan-2-yl)-5-fluoro-N-methyl-2-(2H-1,2,3-triazol-2-yl)benzamide] | > 10 | 0.0794
CC[C@@H](CNc1ccc(Cl)cn1)N(C)C(=O)c1cc(C)ccc1N1CCOCC1 [Example 22, (S)—N-(1-((5-chloropyridin-2-yl)amino)butan-2-yl)-N,5-dimethyl-2-morpholinobenzamide] | > 10 | –
CC[C@@H](CNc1ccc(Cl)cn1)N(C)C(=O)c1cc(N(C)C)ccc1-n1nccn1 [Example 23, (S)—N-(1-((5-chloropyridin-2-yl)amino)butan-2-yl)-5-(dimethylamino)-N-methyl-2-(2H-1,2,3-triazol-2-yl)benzamide] | 2.51 | 0.0251
CC[C@@H](CNc1ccc(Cl)cn1)NC(=O)c1cc(Cl)ccc1-n1nccn1 [Example 25, (S)-5-chloro-N-(1-((5-chloropyridin-2-yl)amino)butan-2-yl)-2-(2H-1,2,3-triazol-2-yl)benzamide] | > 10 | 0.631
Cc1nc(C(=O)N(C)[C@H](CNc2ccc(Cl)cn2)C(C)C)c(-c2ccccc2)s1 [Example 26, (S)—N-(1-((5-chloropyridin-2-yl)amino)-3-methylbutan-2-yl)-N,2-dimethyl-5-phenylthiazole-4-carboxamide] | 2 | 0.0316
